Measured values taken from PubChem BioAssay (NCI).
Where “and” joins values, the source holds several entries; their conditions need not be identical. Identical values can stand only once.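 Cells were grown in 96-well plates and exposed to each compound for 48 hours at five concentrations; endpoints were interpolated linearly between bracketing concentrations, or set to the highest concentration if not reached. At the GI50, growth is halved. TGI marks complete inhibition of growth.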

How the values were obtained:
Assay in all cases: DTP human tumour cell line panel, 48 h
[1] = test system: U251 CNS
[2] = test system: SK-MEL-5 melanoma
[3] = test system: OVCAR-5 ovarian
[4] = test system: CAKI-1 renal
[5] = test system: UACC-257 melanoma
[6] = test system: K-562 leukemia
[7] = test system: HCT-15 colon
[8] = test system: SK-OV-3 ovarian
[9] = test system: UO-31 renal
[10] = test system: SNB-19 CNS

SMILES | GI50 [1] | TGI [1] | GI50 [2] | TGI [2] | GI50 [3] | TGI [3] | GI50 [4] | TGI [4] | GI50 [5] | TGI [5] | GI50 [6] | TGI [6] | GI50 [7] | TGI [7] | GI50 [8] | TGI [8] | GI50 [9] | TGI [9] | GI50 [10] | TGI [10]
C[C@]1(O)CC(=O)[C@]2(O)C3=C(C=C[C@]2(O)C1)C(=O)c1c(O)cccc1C3=O | 6.02 µM | 21.5 µM | 1.75 µM | 3.47 µM | 6.51 µM | 19.8 µM | 1.5 µM | 2.85 µM | 1.68 µM | 3.21 µM | 0.706 µM | 5.28 µM | 1.19 µM | 3.08 µM | 17.5 µM | 42 µM | 1.23 µM | 2.52 µM | 13.6 µM | 26.5 µM
COc1ccc(-c2ccc(=O)oc2-c2cc(OC)c(OC)c(OC)c2)cc1O | 0.0286 µM | > 100 µM | < 0.01 µM | 3.45 µM |  | > 100 µM | 0.0459 µM | > 100 µM | 0.099 µM | > 100 µM | < 0.0229 µM | > 100 µM | 0.0138 µM | > 20.5 µM | 0.0307 µM | > 100 µM | < 0.0208 µM | > 100 µM | 0.0571 µM | > 100 µM
S=C(S)NCCCn1ccnc1 |  | > 100 µM |  | > 100 µM |  | > 100 µM |  | > 100 µM |  | > 100 µM |  | > 100 µM |  | > 100 µM |  | > 100 µM |  | > 100 µM |  | > 100 µM
COc1cc([N+](=O)[O-])c(S(=O)(=O)O)cc1-n1nc(-c2ccccc2)n[n+]1-c1cc(S(=O)(=O)[O-])c([N+](=O)[O-])cc1OC |  | > 100 µM |  | > 100 µM |  | > 100 µM |  | > 100 µM |  | > 100 µM |  | > 100 µM |  | > 100 µM |  | > 100 µM |  | > 100 µM |  | > 100 µM
CCCCCCCCCCCCCCCC[N+](C)(C)C | 0.139 µM and 0.567 µM | 0.271 µM and 1.97 µM | 1.56 µM | 2.95 µM | 0.196 µM and 1.23 µM | 0.61 µM and 4.06 µM | 2.05 µM | 10.7 µM | 0.266 µM and 2.46 µM | 0.942 µM and 6.33 µM | 0.163 µM and 1.17 µM | 1.1 µM and 2.83 µM | 0.383 µM and 1.88 µM | 1.85 µM and 10.1 µM | 0.314 µM and 2.12 µM | 1.35 µM and 6.2 µM | 0.552 µM and 2.18 µM | 2.27 µM and 10.6 µM | 0.129 µM | 0.255 µM
CC(C)c1cccc2sc(NC(=O)C(=O)CC(=O)c3ccc(F)cc3)nc12 |  | > 100 µM |  | > 100 µM |  | > 100 µM |  | > 100 µM |  | > 100 µM |  | > 100 µM |  | > 100 µM |  | > 100 µM |  | > 100 µM |  | > 100 µM
COc1cc(C)c(N(C)C(=O)CN(C)C)cc1Nc1nc(Nc2cccc(F)c2C(N)=O)c2cc[nH]c2n1 | > 25 µM | > 25 µM | 13.3 µM | > 25 µM | 1.41 µM | > 25 µM | > 23.9 µM | > 25 µM | > 15.1 µM | > 25 µM | 18.1 µM | > 25 µM | > 25 µM | > 25 µM | > 25 µM | > 25 µM | 9.26 µM | > 25 µM | > 25 µM | > 25 µM
COc1ccc(-n2nc(C)c3c(Nc4ccc(NC(=O)Nc5cc(C(F)(F)F)ccc5F)cc4)ncnc32)cc1 | 1.77 µM | 4.03 µM | 1.91 µM | 3.73 µM | 2.87 µM | 10.6 µM | 2.01 µM | 6.87 µM | 1.99 µM | 4.42 µM | 2.99 µM | > 100 µM | 2.3 µM | 6.31 µM | 3.48 µM | 82.3 µM | 1.79 µM | 7.04 µM | 3.66 µM | > 100 µM
O=C(O)C1(C(=O)O)CCN(S(=O)(=O)c2ccccc2)CC1 |  | > 100 µM |  | > 100 µM |  | > 100 µM |  | > 100 µM |  | > 100 µM |  | > 100 µM |  | > 100 µM |  | > 100 µM |  | > 100 µM |  | > 100 µM
O=c1c2ccccc2c(C=NCCNCCO)c2oc3ccccc3n12 | 6.24 µM | 19.5 µM | 7.16 µM | 20.1 µM | 15.7 µM | 29.1 µM | 4.08 µM | 15.5 µM | 12.1 µM | 26.7 µM | 4.31 µM | 16.4 µM | 10.1 µM | 23.9 µM | 3.58 µM | 15.9 µM | 9.58 µM | 22.5 µM | 6.33 µM | 19.6 µM
Cn1c(-c2c(N)n(Cc3ccc(Cl)cc3)c3nc(C#N)c(C#N)nc23)nc2ccccc21 | 3.76 µM | 13 µM | 5.24 µM | 16.5 µM | 6.74 µM | 16 µM | 7.15 µM | 18.7 µM | 13.5 µM | > 50 µM | 17.3 µM | > 50 µM | 4.55 µM | > 50 µM | 1.89 µM | 5.67 µM | 5.35 µM | 13.2 µM | 12.3 µM | 46.5 µM
Cc1cc(C)c(S(=O)(=O)Oc2ccccc2[N+](=O)[O-])c(C)c1 | 2.36 µM | > 100 µM | 2 µM | 7.8 µM | 5.67 µM | > 100 µM | 0.956 µM | > 19.9 µM | 4.22 µM | > 100 µM | 0.398 µM | > 100 µM | 1.37 µM | > 100 µM | 2.81 µM | > 29.2 µM | 3.27 µM | > 100 µM | 4 µM | > 100 µM
CCOc1ccc2c(-c3ccnc(Nc4cccc(C(F)(F)F)c4)n3)cnn2n1 | 6.43 µM | > 22.5 µM | > 25 µM | > 25 µM | > 15.9 µM | > 25 µM | > 14.7 µM | > 25 µM | > 25 µM | > 25 µM | 15.9 µM | > 25 µM | > 23.8 µM | > 25 µM | 8.11 µM | 18.9 µM | > 25 µM | > 25 µM | 13.6 µM | > 25 µM
S=C1SC2(CCCCCC2)NC2=C1CCCCC2 |  | > 100 µM |  | 43.2 µM |  | > 100 µM |  | > 100 µM |  | 67.1 µM |  | > 100 µM |  | > 100 µM |  | > 100 µM |  | 60.1 µM |  | 87.5 µM
CCCCC/C=C1\CCC(CN2CCOCC2)C1=O (stereo unspecified) |  | 23.8 µM |  | 31.1 µM |  | 35.9 µM |  | 9.79 µM |  | 24.5 µM |  | 7 µM |  | 21.8 µM |  | 35.3 µM |  | 25.9 µM |  | 32.4 µM
C=C(C)[C@@H]1CC[C@]2(c3ncc(C)o3)CC[C@]3(C)[C@H](CC[C@@H]4[C@@](C)(CCC#N)[C@H](C(=C)C)CC[C@]43C)[C@@H]12 | 3.54 µM | 13.6 µM | 3.65 µM | 13.7 µM | 8.73 µM | 21.1 µM | 2.8 µM | 16.1 µM | 9.02 µM | 24.4 µM | 2.99 µM | > 100 µM | 3.94 µM | 17.1 µM | 11.4 µM | 25.2 µM | 2.4 µM | 14.8 µM | 3.66 µM | 14.5 µM
CCCCCCCCCCSS(=O)(=O)c1ccc(C)cc1 |  | 14.3 µM |  | 17.2 µM |  | 30.6 µM |  | 31.2 µM |  | 19.8 µM |  | 46.8 µM |  | 28.2 µM |  | 42.9 µM |  | 29 µM |  | 27.6 µM
CCC1(c2ccncc2)CCC(=O)NC1=O (stereo unspecified) |  | > 100 µM |  | > 100 µM |  | > 100 µM |  | > 100 µM |  | > 100 µM |  | > 100 µM |  | > 100 µM |  | > 100 µM |  | > 100 µM |  | > 100 µM
CCOc1ccccc1N=C(NC(=O)CC)SC | > 100 µM | > 100 µM |  | > 10 µM |  | > 10 µM | > 100 µM | > 100 µM | > 100 µM | > 100 µM | > 100 µM | > 100 µM | > 10 µM | > 100 µM |  | > 10 µM | > 100 µM | > 100 µM | > 100 µM | > 100 µM
CCCCn1c(=O)c(/C=C/C(=O)/C=C/c2ccc(O)c(OC)c2)cc2ccc(Cl)cc21 | 1.59 µM | 3.08 µM | 1.69 µM | 3.09 µM | 2.57 µM | 4.89 µM | 2.16 µM | 3.91 µM | 1.41 µM | 3.31 µM | 2.82 µM | 12.8 µM | 1.9 µM | 5.94 µM | 3.82 µM | 14.2 µM | 1.59 µM | 2.93 µM | 1.62 µM | 3.3 µM
c1ccc(CN2CCC3(CC2)ONC2=NCCN23)cc1 | 60.1 µM | > 100 µM | 72 µM | > 100 µM | 40.8 µM | > 100 µM | 30.5 µM | > 100 µM | > 100 µM | > 100 µM | 42.8 µM | > 100 µM | 46.8 µM | > 100 µM | 60.8 µM | > 100 µM | 22.3 µM | > 100 µM | > 100 µM | > 100 µM
COc1cccc2c1C(=O)c1c(O)c3c(c(O)c1C2=O)C[C@@](O)(C(=O)COC(=O)c1cccnc1)C[C@@H]3OC1CC(N)C(O)C(C)O1 (stereo partly specified) | 0.0665 µM | 0.592 µM | 0.118 µM | 0.252 µM | 0.335 µM | 4.53 µM | 0.705 µM | 6.25 µM | 0.172 µM | 0.557 µM | 0.15 µM | 2.75 µM | 1.07 µM | 16.8 µM | 0.382 µM | 26 µM | 0.46 µM | 2.89 µM | 0.0691 µM | 2.65 µM
